Experimental data taken from PubChem BioAssay AID1963873 (Molecular Pharmacology Branch, DTP, NCI, 2024).
pIC50: −log10 of the molar value.

System: 276233-004-R-J1-PDC KRAS spheroids with HUVEC/MSC, viability
Test: Anticancer human tumor 276233-004-R-J1-PDC patient-derived colon adenocarcinoma cell line growth inhibition [KRAS2]
Settings: for pIC50: curve of first compound; for viability, T/C: stronger effect = lower value
Text: Multicellular complex tumor spheroid response to RAS pathway inhibitors in combination with a targeted agents in patient-derived cell lines with oncogenic KRAS variants from multiple cancer types
A high-throughput screen of multi-cell type tumor spheroids was designed to identify active combinations of targeted small molecules and KRAS pathway inhibitors. Complex spheroids include a stromal component modeled by human endothelial cells (HUVEC) and fibroblasts modeled by human mesenchymal stem cells (MSCs). The concentration ranges selected for each drug and investigational agent were based upon clinically achievable concentrations if the clinical Cmax of the agent was known.
Compounds. The drugs and investigational agents: BI-3406 (NSC825286), BAY-293 (NSC824723), batoprotafib (TNO155; NSC825523), sotorasib (AMG 510; NSC818433), MRTX1257 (NSC819558), elimusertib (BAY 1895344; NSC800525), molibresib (GSK525762; NSC774829), temuterkib (LY3214996; NSC803410), venetoclax (NSC766270), alisertib (NSC759677), olaparib (NSC753686), talazoparib (NSC767125), erdafitinib (NSC781556), ipatasertib (NSC767898), cabozantinib (NSC761068), nintedanib (NSC756659), abemaciclib (NSC768073), docetaxel (NSC628503), trametinib (NSC758246), and sapanisertib (NSC764658) were obtained from the National Cancer Institute (NCI) Developmental Therapeutics Program Chemical Repository. The FDA-approved anticancer drug set is available from the Developmental Therapeutics Program. […] The stock solutions were prepared in dimethyl sulfoxide (DMSO, Sigma-Aldrich, St. Louis, MO, cat. D2650) at 800-fold the tested concentration and stored at -70 degrees C prior to their use. All drugs and investigational agents were tested over a range starting from a high concentration at or near the clinical Cmax and decreasing in half-log increments. If the clinical Cmax for an agent had not been determined, the highest concentration tested was 10 microM.
Cell Culture. All cells were maintained in an incubator at 37 degrees C and 5% CO2 with 95% humidity. The PDC lines were cultured according to standard operating procedures established by the NCI PDMR (https://pdmr.cancer.gov/sops/default.htm). Briefly, all PDCs were thawed and cultured in Matrigel-coated flasks prepared with a working solution of 1X Ham's F-12 nutrient mix, without supplementation (Invitrogen, Waltham, MA, cat. 11765054), 100 U/mL penicillin-streptomycin (Invitrogen, cat. 15140122), and 2.5% Matrigel (Corning Inc., Corning, NY, cat. 354248) for the first three passages. All PDCs were cultured in complete DMEM/F-12 media containing advanced DMEM/F-12 (Invitrogen, cat. 12634028), 4.9% defined fetal bovine serum, heat inactivated (HyClone Laboratories Inc., Logan, UT, cat. SH30070.03HI), 389 ng/mL hydrocortisone (Sigma-Aldrich, cat. H4001), 9.7 ng/mL human EGF recombinant protein (Invitrogen, cat. PHG0313), 23.4 microg/mL adenine (Sigma-Aldrich, cat. A2786), 97.3 U/mL penicillin-streptomycin (Invitrogen, cat. 15140122), 1.9 mM L-glutamine (Invitrogen, cat. 25030081), and 9.7 microM Y-27632 dihydrochloride (Tocris Bioscience, Bristol, United Kingdom, cat. 1254). The PDCs were cultured in complete DMEM/F12 media without 9.7 microM Y-27632 dihydrochloride for at least two passages prior to the screen. The established cell line HOP-62 was cultured in RPMI 1640 medium, HEPES (Invitrogen, cat. 22400105) with 10% defined fetal bovine serum (HyClone Laboratories Inc., cat. SH30070.03) and 2 mM L-glutamine (Invitrogen, cat. 25030081). The pooled donor HUVEC were cultured in endothelial cell growth medium 2 (PromoCell, Heidelberg, Germany, cat. C-22011) and the hMSC were cultured in mesenchymal stem cell growth medium 2 (PromoCell, cat. C-28009). For all experiments, HUVEC and hMSC were used at passages </=5, while the malignant cell lines were used at passages </=15. […]
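Further: cells exposed to agents for seven days before viability read.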
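Wherever viability, T/C is given: 100% = DMSO vehicle control wells and lower values mean fewer viable cells.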

Work on COc1cc2nccc(Oc3ccc(NC(=O)C4(C(=O)Nc5ccc(F)cc5)CC4)cc3)c2cc1OC + C=CC(=O)N1CCN(c2nc(=O)n(-c3c(C)ccnc3C(C)C)c3nc(-c4c(O)cccc4F)c(F)cc23)C(C)C1 yielded a pIC50 (second compound 0.1 µM) of less than 5.00, a pIC50 (second compound 0.316 µM) of less than 5.00 and a pIC50 (second compound 1 µM) of less than 5.00. For the same compound, the pIC50 (second compound 3.16 µM) was less than 5.00, the pIC50 (second compound 10 µM) was less than 5.00 and the viability, T/C (second compound 0.1 µM, first compound 0.0316 µM) was 93.5%. The viability, T/C (second compound 0.1 µM, first compound 0.1 µM) was 109%, the viability, T/C (second compound 0.1 µM, first compound 0.316 µM) was 96% and the viability, T/C (second compound 0.1 µM, first compound 1 µM) was 84.7%. For the same compound, the viability, T/C (second compound 0.1 µM, first compound 3.16 µM) was 101%, the viability, T/C (second compound 0.1 µM, first compound 10 µM) was 104% and the viability, T/C (second compound 0.316 µM, first compound 0.0316 µM) was 97.4%. The viability, T/C (second compound 0.316 µM, first compound 0.1 µM) was 112%, the viability, T/C (second compound 0.316 µM, first compound 0.316 µM) was 83.7% and the viability, T/C (second compound 0.316 µM, first compound 1 µM) was 91.3%. For the same compound, the viability, T/C (second compound 0.316 µM, first compound 3.16 µM) was 87.4%, the viability, T/C (second compound 0.316 µM, first compound 10 µM) was 76.3% and the viability, T/C (second compound 1 µM, first compound 0.0316 µM) was 89.1%. For the same compound, the viability, T/C (second compound 1 µM, first compound 0.1 µM) was 91.2%, the viability, T/C (second compound 1 µM, first compound 0.316 µM) was 84.9% and the viability, T/C (second compound 1 µM, first compound 1 µM) was 72.1%. The viability, T/C (second compound 1 µM, first compound 3.16 µM) was 74.5%, the viability, T/C (second compound 1 µM, first compound 10 µM) was 75.1% and the viability, T/C (second compound 3.16 µM, first compound 0.0316 µM) was 85.5%. For the same compound, the viability, T/C (second compound 3.16 µM, first compound 0.1 µM) was 79.8%, the viability, T/C (second compound 3.16 µM, first compound 0.316 µM) was 102% and the viability, T/C (second compound 3.16 µM, first compound 1 µM) was 76.7%. The viability, T/C (second compound 3.16 µM, first compound 3.16 µM) was 72.4%, the viability, T/C (second compound 3.16 µM, first compound 10 µM) was 114% and the viability, T/C (second compound 10 µM, first compound 0.0316 µM) was 82.3%. For the same compound, the viability, T/C (second compound 10 µM, first compound 0.1 µM) was 74.9%, the viability, T/C (second compound 10 µM, first compound 0.316 µM) was 69.1% and the viability, T/C (second compound 10 µM, first compound 1 µM) was 81.8%. The viability, T/C (second compound 10 µM, first compound 3.16 µM) was 88.5% and the viability, T/C (second compound 10 µM, first compound 10 µM) was 76%.
